Experimental findings from EP2276483B1, “SOLID FORMS COMPRISING (+)-2-[1-(3-ETHOXY-4-METHOXYPHENYL)-2-METHYLSULFONYLETHYL]-4-ACETYLAMINOISOINDOLINE-1,3-DIONE, COMPOSITIONS THEREOF, AND USES THEREOF” (CELGENE CORPORATION, priority 2008, dated 2009) are described below.

Data set [1] deals with serum TNF-α. The data set can be described thus: Mouse LPS-induced serum TNF-α inhibition. Particulars: po, read-out: Mouse LPS-induced serum TNF-α inhibition (ED50, mg/kg, p.o.). It is filed as in vivo. As for the experimental part:
Compounds were tested in this animal model according to previously described methods (Corral et al., 1996, Mol. Med., 2:506-515). Mouse LPS-induced serum TNF-α inhibition (ED50, mg/kg, p.o.) = 0.05 for Compound A.

The test system of data set [2] is bovine PDE1. In words: PDE1 enzyme assay. It is filed as biochemical.
Data set [3] has as its target PDE3 from human platelets (Homo sapiens, UniProt Q14432). In words: PDE3 enzyme assay. It is filed as biochemical.
Data set [4] deals with T1, PDE5 from human platelets (Homo sapiens, UniProt O76074).
T1 construct: PDE5 from human platelets; from tissue; host or cells: human platelets
The data set can be described thus: PDE5 enzyme assay. It is filed as biochemical.

In data set [5] the target is PDE7 purified from Hut78 human T cells (Homo sapiens, UniProt Q13946). The data set can be described thus: PDE7 enzyme assay. It is filed as biochemical. As for the experimental part: PDE7 is a cAMP-selective PDE expressed mainly in T cells and in skeletal muscle. T cell-derived cytokines such as IL-2 and IFN-γ are potentially regulatable via PDE7 inhibition. […] Compounds were tested against the PDE7 preparation in the presence of 10 nM cAMP as described for PDE4 in Table 1.

In data set [6] the test system is IFN-γ. In words: SEB-induced IFN-γ production in human PBMC. It is filed as cell-based. To be noted: 100 ng/ml SEB.
Data set [7] has as its system IL-8. In words: Zymosan-induced IL-8 production in human neutrophils. It is filed as cell-based. Particulars: Neutrophil. As to the method: Zymosan A, or the heat-killed yeast Saccharomyces cerevisiae, binds to the adhesion molecule Mac-1 on the neutrophil surface and triggers phagocytosis, cell activation and IL-8 production. Zymosan-induced IL-8 production was measured as previously described (Au et al., 1998, Brit. J. Pharm., 123:1260-1266) with the following modifications. Human neutrophils were purified as described above, plated in 96-well tissue culture plates at 3x10^5 cells/well in complete medium, treated with compounds at 10, 2, 0.4, 0.08, 0.016, 0.0032, 0.00064, and 0 µM in duplicate in a final DMSO concentration of 0.1% for 1 hour at 37°C 5% CO2. Neutrophils were then stimulated with unopsonized, boiled Zymosan A (Sigma) at 2.5 x 10^5 particles/well for 18 hours. Supernatants were harvested and tested for IL-8 by ELISA (R&D Systems).

Data set [8] in a line: Aqueous equilibrium solubility in pH 7.4 buffer. It is filed as physicochemical. Particulars: pH 7.4. As for the experimental part:
Equilibrium solubilities were measured in pH 7.4 aqueous buffer. The pH 7.4 buffer was prepared by adjusting the pH of a 0.07 M NaH2PO4 solution to 7.4 with 10 N NaOH. The ionic strength of the solution was 0.15. At least 1 mg of powder was combined with 1 ml of buffer to make >1 mg/ml mixture. These samples were shaken for >2 hours and left to stand overnight at room temperature. The samples were then filtered through a 0.45-µm Nylon syringe filter that was first saturated with the sample. The filtrate was sampled twice, consecutively. The filtrate was assayed by HPLC against standards prepared in 50% methanol.

Data set [9] has as its system LPS-induced pulmonary neutrophilia. In words: LPS-induced lung neutrophilia ferret model. To be noted: Mustela putorius, po; conscious ferret, p.o.; read-out: Inhibition of LPS-induced neutrophilia (ED50 mg/kg). It is filed as in vivo, ferrets (Mustela Pulorius Euro). An excerpt: The conscious ferret model has been used to investigate anti-inflammatory, emetic and behavioral effects of PDE4 inhibitors when administered by the oral (p.o.) route. From these experiments, a therapeutic index (TI) for each PDE4 inhibitor may be determined. The TI has been calculated by dividing the threshold dose for causing emetic episodes and behavioral changes by the anti-inflammatory dose (dose that causes 50% inhibition of the LPS-induced neutrophilia).
Male ferrets (Mustela Pulorius Euro, weighing 1 - 2 kg). Ferrets were supplied either by Bury Green Farm or Misay Consultancy. Following transport, the animals were allowed to acclimatize in the holding rooms for a period of not less than seven days. The diet comprised SDS diet C pelleted food given ad lib with Whiskers™ cat food given three times per week. Water was pasteurized animal grade drinking water and was changed daily. […]
Thirty minutes after p.o. dosing with compound or vehicle control, the ferrets were placed into sealed Perspex containers and exposed to an aerosol of LPS (100 µg/ml) for 10 minutes. […] Observation continued for a period of at least 2.5 hours post p.o. dosing and emetic episodes and behavioral changes were recorded. […]
The bronchoalveolar lavage (BAL) samples were centrifuged at 1,500 rpm for 5 minutes. […] From this, the total number of neutrophils in the BAL was determined. […]

SMILES strings stand for the structures.

PDE7 purified from Hut78 human T cells, sequence (Q13946 whole entry): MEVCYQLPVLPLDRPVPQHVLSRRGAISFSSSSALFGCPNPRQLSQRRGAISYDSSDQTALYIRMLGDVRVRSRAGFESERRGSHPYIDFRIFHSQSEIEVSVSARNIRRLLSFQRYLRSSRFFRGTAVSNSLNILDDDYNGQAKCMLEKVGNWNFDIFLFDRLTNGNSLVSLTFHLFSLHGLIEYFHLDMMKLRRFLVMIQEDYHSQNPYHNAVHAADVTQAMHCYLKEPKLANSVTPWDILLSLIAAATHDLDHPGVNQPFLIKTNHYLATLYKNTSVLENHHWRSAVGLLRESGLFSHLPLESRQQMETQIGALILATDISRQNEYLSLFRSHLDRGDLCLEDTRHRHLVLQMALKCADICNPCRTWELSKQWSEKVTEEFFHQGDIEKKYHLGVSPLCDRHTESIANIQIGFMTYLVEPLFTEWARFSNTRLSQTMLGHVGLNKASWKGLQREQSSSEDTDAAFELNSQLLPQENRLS
PDE3 from human platelets, sequence (Q14432 whole entry): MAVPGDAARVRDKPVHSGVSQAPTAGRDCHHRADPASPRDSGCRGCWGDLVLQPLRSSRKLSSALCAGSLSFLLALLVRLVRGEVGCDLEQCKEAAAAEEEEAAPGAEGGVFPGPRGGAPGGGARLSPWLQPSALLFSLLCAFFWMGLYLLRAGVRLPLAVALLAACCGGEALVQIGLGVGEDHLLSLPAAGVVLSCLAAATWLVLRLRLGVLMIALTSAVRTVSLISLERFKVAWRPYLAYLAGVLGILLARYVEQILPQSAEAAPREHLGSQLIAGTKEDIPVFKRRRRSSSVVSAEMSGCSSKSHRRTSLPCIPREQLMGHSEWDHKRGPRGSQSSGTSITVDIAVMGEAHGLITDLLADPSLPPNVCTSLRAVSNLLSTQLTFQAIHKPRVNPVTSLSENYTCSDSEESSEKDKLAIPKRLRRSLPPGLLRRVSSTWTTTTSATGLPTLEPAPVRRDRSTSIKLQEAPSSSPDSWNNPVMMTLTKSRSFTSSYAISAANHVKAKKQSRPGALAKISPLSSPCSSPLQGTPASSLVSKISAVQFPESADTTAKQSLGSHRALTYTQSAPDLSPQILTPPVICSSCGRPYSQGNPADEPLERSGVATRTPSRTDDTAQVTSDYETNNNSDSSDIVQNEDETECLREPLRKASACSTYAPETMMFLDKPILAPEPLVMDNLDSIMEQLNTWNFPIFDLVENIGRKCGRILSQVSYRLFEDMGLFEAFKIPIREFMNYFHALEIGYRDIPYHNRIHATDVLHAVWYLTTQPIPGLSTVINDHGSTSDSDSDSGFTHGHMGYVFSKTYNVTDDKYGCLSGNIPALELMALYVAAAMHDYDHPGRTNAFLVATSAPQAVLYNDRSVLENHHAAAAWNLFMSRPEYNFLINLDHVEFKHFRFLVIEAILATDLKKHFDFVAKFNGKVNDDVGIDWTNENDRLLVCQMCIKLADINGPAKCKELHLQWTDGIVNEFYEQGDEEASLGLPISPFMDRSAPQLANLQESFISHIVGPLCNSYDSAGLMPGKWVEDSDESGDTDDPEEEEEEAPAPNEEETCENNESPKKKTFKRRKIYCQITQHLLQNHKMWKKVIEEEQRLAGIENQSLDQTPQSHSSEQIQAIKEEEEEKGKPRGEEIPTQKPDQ

The IC50 is the point on the concentration scale where inhibition reaches its midpoint. A low value points to greater potency. For the compound `CCOc1cc(C(CS(C)(=O)=O)N2C(=O)c3cccc(NC(C)=O)c3C2=O)ccc1OC` (single isomer, unassigned; (+)) [Compound A, (+)-2-[1-(3-ethoxy-4-methoxyphenyl)-2-methylsulfonylethyl]-4-acetylaminoisoindoline-1,3-dione], the ED50 was 0.05 mg/kg in data set [1] and 0.8 mg/kg in data set [9]. Further, the “PDE1 (% inhib at 10 µM)” value in [2] (10 µM) is 23%. Further, the “PDE Specificity Ratio PDE4/PDE1” value in data set [2] (from above data) is listed as over 500 fold. Moreover, the “PDE Specificity Ratio PDE4/PDE3” value in data set [3] (from above data) was over 1200 fold. In addition, the inhibition at 10 µM in data set [3] (read-out: PDE3 (% inhib at 10 µM)) was 20%; in [4] (read-out: PDE5 (% inhib at 10 µM)), 3%. Further, the “PDE Specificity Ratio PDE4/PDE5” value in data set [4] (from above data) is given as over 30000 fold. Moreover, the IC50 in [5] (10 nM cAMP) is 20500 nM; in [6], 46 nM; in [7] it was 94 nM. The “PDE Specificity Ratio PDE7 IC50/PDE4 IC50” value in data set [5] (from above data) amounted to 279 fold. For the same compound, the Measured solubility in data set [8] came out at 12 µg/mL. Moreover, the “greater aqueous solubility than the racemic mixture” value in data set [8] worked out at 3.5 fold.
